From patent US11351151B2, “Compound having anticancer activity and preparation method and application” (3D Medicines (Beijing) Co., Ltd., priority 2016, dated 2022) come the findings set out here.

The structures appear in SMILES notation.

What all share (type): cell-based
For one assay, the system named is HLE. Briefly: Cell proliferation assay (Alamar Blue). To be noted: Homo sapiens, 144 h; HLE liver cancer cell line; 6 days. The method, boiled down: (§1)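 Growth inhibition is measured after six days of drug exposure using resazurin (AlamarBlue) fluorescence at 560/590 nm. Dose–response curves, typically four-parameter, yield IC50 values.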
(Alamar Blue is a resazurin reagent that responds to reducing activity.)

The next assay has as its system KASUMI-1. Kind of assay: Cell proliferation assay (Alamar Blue). The note with it: Homo sapiens, 144 h; KASUMI-1 (leukemia cells); 6 days. The method, boiled down: as §1
The subject of a further assay is HLF. Kind of assay: Cell proliferation assay (Alamar Blue). The note with it: 144 h; HLF liver cancer cell line; 6 days. The gist of the method: as §1
For another assay, the system named is SW620. Briefly: Cell proliferation assay (Alamar Blue). The note with it: Homo sapiens, SW-620, 144 h; SW620 tumor cell line; 6 days. The method, boiled down: as §1
The subject of the next assay is SNU387. Kind of assay: Cell proliferation assay (Alamar Blue). The note with it: Homo sapiens, SNU-387, 144 h; SNU387 liver cancer cell line; 6 days. The gist of the method: as §1
The next assay concerns LC-2-ad. Kind of assay: Cell proliferation assay (Alamar Blue). To be noted: Homo sapiens, 144 h; LC-2-ad tumor cell line; 6 days. The gist of the method:
as §1

The subject of the next assay is SNU449. Kind of assay: Cell proliferation assay (Alamar Blue). To be noted: Homo sapiens, SNU-449, 144 h; SNU449 liver cancer cell line; 6 days. The method, boiled down:
as §1

Assay [1] concerns 54 commercial tumor cell lines. Briefly: Cell proliferation assay (Alamar Blue), summary over the panel. To be noted: in almost all tumor cell lines. On the procedure: 1. Instruments and Materials • Thermo 311 CO2 incubator; Haier biosafety cabinet; Molecular Devices microplate reader; Xiangyi brand L530 desktop low speed centrifuge; Olympus IX51 inverted fluorescence microscope, DMEM, RPMI 1640, MEM, DMEM/F12 1:1 medium, Fetal bovine serum, 0.25% trypsin solution, phosphate buffer (Thermo Fisher Shanghai Co., Ltd.); sigma dimethyl sulfoxide (DMSO), resazurin; 54 commercial tumor cell lines (including 26 liver cancer cell lines). Experimental drugs: compounds 1-12 and active drug Linifanib; chemotherapeutic drug Doxorubicin (HY-15142; Shanghai Qianyuan Biomedical Technology Co., Ltd.).
2. Experimental Methods • 2.1 Cultivation of different cell lines • 54 cell lines were cultured in a culture medium containing fetal bovine serum and placed in a 5% CO 2 incubator at 37° C. for incubation. The cells were all grown in an adherent state, and the growth was observed under an inverted microscope, and subculture was performed when the cell confluence rate reached 80%-90%. The proportion and quantity of passage were determined by experimental needs. The ratio of subculture of this cell line was generally 1:2^˜1:3. • 2.2 inhibition effect on the proliferation of different tumor cell lines • Cell test: 54 cell lines in logarithmic growth phase were inoculated in 96-well culture plates at 500^˜1×10^4/well (the optimal seeding density of each cell line was determined in pre-experiment), After incubating at 37° C. for 4 h in a 5% CO2 humidification incubator, added 10 μL of compounds 1-12 or Linifanib to each well, and tested 9 drug concentration gradients for each compound (diluted from the highest concentration of the test by 3.16 times). The solubility of each compound was different at a starting concentration of 30 or 100 μM, respectively. The QC reference compound Doxorubicin was added simultaneously to each cell line test, and the final drug concentrations were 10, 3.16, 1, 0.31, 0.1, 0.03, 0.01, 0.003, and 0.001 μM, respectively. In addition, a positive control group (100% inhibition) and a negative control group (0% inhibition) were set at the same time. The drug group was repeated for 2 wells per concentration, and the positive control group and the negative control group were repeated for 6 wells. After the culture was continued for 6 days in the incubator, AlamarBlue test operation was followed; • AlamarBlue test procedure: Incubated with 10 μL of AlamarBlue reagent per well for 1-4 h, shook for 1-2 min, MD microplate reader EX: 560 nm, EM: 590 nm wavelength to measure fluorescence, recorded the results, calculated the cell inhibition rate of the compound of the invention. […]

As to `Cc1ccc(F)c(NC(=O)Nc2ccc(-c3cccc4c3c(N)nn4C(=O)C[C@H](N)C(=O)N[C@@H](CCC(=O)O)C(=O)O)cc2)c1` [Compound 1], the IC50 in the assay with HLE is 1.98 µM; in the assay with KASUMI-1, 0.051 µM; in the assay with HLF it was 3.98 µM; with SW620 it was 2.79 µM; in the assay on SNU387 it was 12.8 µM; with LC-2-ad, 8.89 µM. For the same compound, half-maximal inhibition in the assay on SNU449 (IC50) required 5.21 µM. Also, in assay [1], the “IC50 values compared with Linifanib” value is on record as “close to those of Linifanib”.

Consider `Cc1ccc(F)c(NC(=O)Nc2ccc(-c3cccc4c3c(N)nn4C(=O)C[C@H](N)C(=O)O)cc2)c1` [Compound 10], for which the IC50 in the assay with HLE worked out at 1.26 µM; with KASUMI-1, 0.042 µM; in the assay with HLF, 3.87 µM; in the assay on SW620, 3.46 µM; with SNU387, 10.5 µM; in the assay with LC-2-ad, 6.38 µM. This compound also displayed an IC50 in the assay on SNU449 of 4.91 µM. Besides, in assay [1], the “IC50 values compared with Linifanib” value is recorded as “close to those of Linifanib”.

For `Cc1ccc(F)c(NC(=O)Nc2ccc(-c3cccc4c3c(N)nn4C(=O)C[C@H](N)C(=O)N[C@@H](CCC(=O)N[C@@H](CCC(=O)N[C@@H](CCC(=O)N[C@@H](CCC(=O)O)C(=O)O)C(=O)O)C(=O)O)C(=O)O)cc2)c1` [Compound 2], the IC50 in the assay with HLE was 2.69 µM; in the assay with KASUMI-1 it was 0.12 µM; in the assay with HLF, 4.94 µM; with SW620, 4.67 µM; in the assay with SNU387 it was 19.4 µM; with LC-2-ad, 13.5 µM. Half-maximal inhibition with SNU449 (IC50) was put at 8.39 µM. Also, the “IC50 values compared with Linifanib” value in assay [1] is recorded as “close to those of Linifanib”.

Regarding `Cc1ccc(F)c(NC(=O)Nc2ccc(-c3cccc4c3c(N)nn4C(=O)C[C@H](N)C(=O)N[C@@H](CCC(=O)N[C@@H](CCC(=O)N[C@@H](CCC(=O)N[C@@H](CCC(=O)N[C@@H](CCC(=O)N[C@@H](CCC(=O)N[C@@H](CCC(=O)N[C@@H](CCC(=O)N[C@@H](CCC(=O)O)C(=O)O)C(=O)O)C(=O)O)C(=O)O)C(=O)O)C(=O)O)C(=O)O)C(=O)O)C(=O)O)cc2)c1` [Compound 3], the IC50 is 4.72 µM in the assay on HLE; 0.19 µM in the assay with KASUMI-1; 7.73 µM with HLF; 10.4 µM in the assay with SW620; 40.1 µM in the assay with SNU387; 22.4 µM in the assay with LC-2-ad. The compound also returned an IC50 in the assay with SNU449 of 14.6 µM. For the same compound, in assay [1], the “IC50 values compared with Linifanib” value is recorded as “close to those of Linifanib”.

As usually defined, the IC50 is the concentration at which inhibition is half-maximal.
